This note sets out measurements from PMC12705620 (Frontiers in Pharmacology, 2025).

Several values for one entry are separate records, joined by “and”; a condition that tells them apart may be missing. Equal values may be shown once. Read-outs that look alike come from different tables or passages of the source. Some results are limits rather than exact numbers.

The test system of series [1] is Staphylococcus aureus JAR060131. Format: cell-based. To be noted: 18 h, 37 °C, median of three independent experiments. How it is done: (§1) Bactericidal activity was assessed as previously described ([Breij et al., 2018]). Briefly, mid-logarithmic phase bacterial cultures were diluted in RPMI to 1 × 10^7 CFU/mL. For fungicidal assays, fungal cultures were prepared in RPMI supplemented with 1% glucose (Merck) and diluted to 2–5 × 10^5 CFU/mL. For each condition, 10 µL of the suspension was added to 90 µL of peptide-containing RPMI or RPMI supplemented with 50% (v/v) pooled human plasma (hereafter referred to as 50% plasma; final bacterial concentration 1 × 10^6 CFU/mL, final fungal concentration 2–5 × 10^4 CFU/mL. Human plasma from four healthy volunteers (Sanquin, Netherlands) was pooled, and stored at −20 °C until use. Peptides were tested similarly for fungicidal activity, after 18 h of incubation at 37 °C with shaking (120 rpm) under humidified conditions, bacterial and fungal survival was determined by plating 10 µL aliquots onto BA plates. Assays were performed in duplicate in round-bottom polypropylene microtiter plates (Costar) and repeated independently three times. Untreated controls included bacteria exposed to RPMI alone or RPMI with 50% plasma. Bactericidal and fungicidal activity was expressed as the lethal concentration 99.9% (LC99.9), defined as the lowest peptide concentration causing ≥99.9% reduction in numbers of CFU compared to the initial inoculum.

The subject of series [2] is Acinetobacter baumannii RUH875. It is filed as cell-based. To be noted: 18 h, 37 °C, median of three independent experiments (Table 1). Here is the method:
as §1

The test system of series [3] is S. aureus RN4220 (mCherry) in dTHP-1 macrophages. Put plainly: Intracellular bacterial killing in macrophages. The note with it: 24 h pre-treatment at 1 µM and 2 µM, MOI 2, CFU after lysis, versus no treatment. Format: cell-based, Staphylococcus aureus. Here is the method:
Human monocytes (THP-1; TIB-202; ATCC) were cultured in RPMI 1,640 medium (Gibco) supplemented with 10% FBS. For differentiation into macrophage-like cells (dTHP-1), THP-1 monocytes were seeded in 96-well plates at 3 × 10^4 cells/well (100 µL) in RPMI supplemented with 50 ng/mL phorbol 12-myristate 13-acetate (PMA; Sigma-Aldrich), and incubated for 48 h. The protocol for intracellular killing was adapted from Tang et al. ([Tang et al., 2015]) with modifications. After differentiation, dTHP-1 cells were pre-treated with one or 2 µM peptide solutions in fresh RPMI for 24 h. Subsequently peptides were removed by washing three times with PBS. An mCherry-expressing S. aureus strain, prepared as described in Section 5.2, was used. This strain is efficiently internalized by macrophages ([Cuypers et al., 2024]). Bacteria were added to dTHP-1 cells at a multiplicity of infection (MOI) of 2:1 and incubated for 45 min at 37 °C with 5% CO2 for phagocytosis. Extracellular bacteria were then removed by washing the wells three times with 60 µL PBS, followed by a final wash with 200 µL PBS.dTHP-1 cells were either lysed immediately to quantify the number of intracellular bacteria, after phagocytosis (T = 0 h) or were incubated for 24 h (T = 24 h) in RPMI supplemented with 10 μg/mL gentamicin (Sigma-Aldrich) to inhibit extracellular bacterial growth (in both peptide-treated and control dTHP-1 cells). Internalized bacteria were quantified after lysing the cells with 0.025% Triton X-100 in PBS for 15 min. Lysates were serially diluted (both at 0 h and 24 h) and plated onto BA for CFU enumeration to assess intracellular bacterial survival.

In series [4] the test system is human erythrocytes. The series is described as follows: Hemolytic activity. Format: cell-based. The note with it: 45 min. How it is done: Whole blood was collected from healthy volunteers after obtaining informed consent, using Vacuette EDTA tubes (Greiner Bio-One). […] For hemolytic assessment, 180 μL of the prepared erythrocyte suspension was mixed with 20 μL of serially diluted peptide solutions (ranging from 60 to 0.03 μM in PBS).

In series [5] the test system is TNF-α production by unstimulated dTHP-1 macrophages. The series is described as follows: TNFα induction by peptides alone in macrophages. It is filed as cell-based, human. To be noted: 2 µM peptide, 4 h, no endotoxin stimulation, versus unstimulated cells. Here is the method:
The endotoxin-neutralizing capacity of the peptides was assessed by measuring tumor necrosis factor-alpha (TNF-α) production by dTHP-1 macrophages. dTHP-1 macrophages were stimulated with either lipopolysaccharide (LPS; E. coli O111:B4; 5 ng/mL, Sigma-Aldrich) or UV-inactivated S. aureus JAR060131 (MOI 2; as described in Section 5.2), in the presence or absence of one or 2 µM peptides. Cells were cultured in serum-free RPMI and incubated for 4 h at 37 °C with 5% CO2. Positive controls consisted of cells stimulated with LPS or UV-S. aureus without peptide treatment (no treatment, NT), and unstimulated cells served as negative controls. After stimulation, cell supernatants were collected, and cytokine levels of TNF-α were quantified using human ELISA kits (R&D Systems, USA) according to the manufacturer’s instructions. Each condition was tested in triplicate.

Series [6] concerns HaCaT keratinocytes. The series is described as follows: In vitro scratch wound assay. It is filed as cell-based, human. To be noted: 1 µM peptide (TGF-β 20 ng/mL), 60 h (legend: 64 h), versus no treatment. Here is the method: Cell migration following injury was assessed using an in vitro scratch assay with the IncuCyte wound maker tool (Sartorius). HaCaT keratinocytes were seeded in 96-well ImageLock plates (Sartorius) at 3 × 10^5 cells/well (100 µL) in DMEM supplemented with 10% FBS and incubated at 37 °C, 5% CO2 for 48 h, with medium change at 24 h, until confluence. Uniform scratches were introduced using the wound maker tool according to the manufacturer’s instructions. After wounding, wells were washed twice with 100 µL PBS to remove cell debris. Cells were then treated with 1 µM peptides in serum-free DMEM, to focus specifically on cell migration from the wound edges. The absence of serum minimizes interference with peptide activity. Transforming growth factor-beta (TGF-β; human; 20 ng/mL; Sigma-Aldrich) and 5% dimethyl sulfoxide (DMSO; Sigma-Aldrich) were used as positive and negative controls, respectively. Additional controls included serum-free DMEM (no-treatment control) and 50% (v/v) acetonitrile in Milli-Q water as solvent control. Wound closure was monitored using the IncuCyte S3 live-cell imaging system (Sartorius) with bright-field microscopy. Images were captured every 6 h for up to 60 h. Image analysis was performed using ImageJ software (version 1.53t, NIH, USA) with the “Wound Healing” plugin, as described by Suarez Arnedo et al. ([Suarez-Arnedo et al., 2020]). Quantitative parameters included wound width (µm), percent wound closure, and migration rate (µm/hour).

In series [7] the test system is human skin fibroblast cells (BJ). The series is described as follows: Cytotoxicity (WST-1 and LDH). Format: cell-based. Here is the method:
(§2) Cells (5 × 10^5 cells/mL) were seeded in 96-well plates (100 μL/well; Thermo Scientific) and allowed to adhere for 24 h. After adhesion, monolayers were exposed to two-fold serial dilutions of the tetrameric and reference peptides (final concentrations: 60–0.05 µM) in fresh DMEM containing 2% (v/v) FBS, and incubated for 24 h at 37 °C in a humidified 5% CO2 atmosphere. Cell viability was assessed using the water-soluble tetrazolium salt (WST-1; Roche) assay, and membrane integrity was measured using the lactate dehydrogenase (LDH) release assay (Abcam), following manufacturer instructions. Absorbance was measured using the Synergy H1 microplate reader (Biotek). Results are expressed as percentages relative to untreated control (for WST-1) and positive lysis control (for LDH) and all experiments were performed in triplicate.
(In general: Tetrazolium dyes change colour on reduction, which living cells bring about.)

Series [8] concerns HaCaT human keratinocytes. The series is described as follows: Cytotoxicity (WST-1 and LDH). Format: cell-based. Here is the method: as §2
Setting [9] is: 24 h exposure, DMEM 2% FBS, concentration causing >30% membrane permeation, triplicate.
The mark [10] stands for this setting: 24 h exposure, WST-1, concentration causing <70% metabolic activity, triplicate.

Regarding `CC[C@H](C)[C@H](NC(=O)[C@H](CCCCN)NC(=O)[C@H](CCC(=O)O)NC(=O)[C@H](CCCCN)NC(=O)[C@H](CO)NC(=O)[C@H](CCCCN)NC(=O)[C@H](CCCNC(=N)N)NC(=O)[C@H](Cc1ccccc1)NC(=O)[C@H](Cc1ccccc1)NC(=O)[C@H](CC(=O)O)NC(=O)CNC(=O)[C@H](CC(C)C)NC(=O)[C@@H](N)CC(C)C)C(=O)NCC(=O)N[C@@H](CCCCN)C(=O)N[C@@H](CCC(=O)O)C(=O)N[C@@H](Cc1ccccc1)C(=O)N[C@@H](CCCCN)C(=O)N[C@@H](CCCNC(=N)N)C(=O)N[C@H](C(=O)N[C@H](C(=O)N[C@@H](CCC(N)=O)C(=O)N[C@@H](CCCNC(=N)N)C(=O)N[C@H](C(=O)N[C@@H](CCCCN)C(=O)N[C@@H](CC(=O)O)C(=O)N[C@@H](Cc1ccccc1)C(=O)N[C@@H](CC(C)C)C(=O)N[C@@H](CCCNC(=N)N)C(=O)N[C@@H](CC(N)=O)C(=O)N[C@@H](CC(C)C)C(=O)N[C@H](C(=O)N1CCC[C@H]1C(=O)N[C@@H](CCCNC(=N)N)C(=O)N[C@H](C(=O)N[C@@H](CCC(=O)O)C(=O)N[C@@H](CO)C(=O)O)[C@@H](C)O)C(C)C)[C@@H](C)CC)C(C)C)[C@@H](C)CC` [LL-37, reference compound], the LC99.9 is 60 µM in series [1] (50% pooled human plasma in RPMI); 1.88 µM in series [1] (RPMI, 1 × 10^6 CFU/mL); > 120 µM and >120 µM in series [2] (50% pooled human plasma); >120 µM in series [2] (RPMI). Moreover, in series [3], the “Macrophage reduction of intracellular S. aureus burden 24 h post-phagocytosis” value is “significantly enhanced”. The “Hemolysis at the highest concentration tested” value in series [4] (60 µM, human erythrocytes) is “non-hemolytic”. The “Hemolytic concentration (HC) < 30%” value in series [4] (1% human erythrocytes in PBS, 37 °C, absorbance 540 nm, 30% lysis threshold, peptides up to 60 µM, triplicate, single donor) is reported as greater than 60 µM. The “TNFα induction by peptide alone” value in series [5] was “minimal but significant”. Moreover, the “Percentage of wound closure” value in series [6] is given as “significant wound closure”. Also, the “Cytotoxicity, LDH leakage” value in series [7] (setting [9]) turned out to be 7.5 µM; in series [8] (setting [9]), 15 µM. Further, the “Cytotoxicity, Metabolic activity” value in series [7] (setting [10]) and in series [8] (setting [10]) was 15 µM each time. Moreover, the “Cytotoxicity threshold (tolerance), WST-1 and LDH” value was 7.5 to 15 µM in series [7] (fibroblasts, 24 h) and 15 µM in series [8] (keratinocytes, 24 h).
